Measured values published in paper PMC5068967, “Nucleophile sensitivity of Drosophila TRPA1 underlies light-induced feeding deterrence” (eLife, 2016).

Experiments:
human TRPA1 (humTRPA1) = biological target: T1, human TRPA1 (humTRPA1) (Homo sapiens, UniProt O75762); test: Two-electrode voltage clamp of Xenopus oocytes expressing human TRPA1; format: cell-based
T1 construct: expressed in transfected cells; host or cells: Xenopus laevis oocytes injected with TrpA1 cRNA
Procedure: (§1) TRPA1-dependent currents in Xenopus laevis oocytes induced by application of chemicals and light illumination were recorded by the two-electrode voltage clamping technique (TEVC), as described previously ([Kang et al., 2010]; [Kang et al., 2012]). Briefly, ovaries were surgically prepared and subjected to digestion with 1.5 mg/ml collagenase for 1.5 hr. Subsequently, the follicular layer of the oocytes was manually removed. One day after microinjection of 50 nl of TrpA1 cRNA, oocytes were electrophysiologically examined while perfused with the recording solution (96 mM NaCl, 1 mM KCl, 1 mM MgCl2, 5 mM HEPES, pH 7.6). For UV illumination, the optical fiber terminal was mounted above the cell at a minimal distance to achieve the highest possible intensity (Figure 1—figure supplement 1c). […] For UV experiments, the initial voltage was −60 mV, and it was then changed in periods of 300 ms from −60 to +60 mV per second. […] The current was amplified with a GeneClamp 500B amplifier (Molecular Devices, CA, USA) and registered by a digitizer (Digidata 1440 A, Molecular Devices, CA, USA). Data from dose-dependence experiments were normalized with respect to 0.1 mM NMM currents recorded from the same cells, and fitted to the Hill equation using Sigmaplot12.

agTRPA1(A) = agTRPA1(A) (Anopheles gambiae, UniProt B3G3I7); test: Two-electrode voltage clamp of Xenopus oocytes expressing agTRPA1(A); format: cell-based; conditions: for isoform preference of activation: −60 mV, agTRPA1(A) versus agTRPA1(B)
Sequence of agTRPA1(A) (B3G3I7 entry or part of it): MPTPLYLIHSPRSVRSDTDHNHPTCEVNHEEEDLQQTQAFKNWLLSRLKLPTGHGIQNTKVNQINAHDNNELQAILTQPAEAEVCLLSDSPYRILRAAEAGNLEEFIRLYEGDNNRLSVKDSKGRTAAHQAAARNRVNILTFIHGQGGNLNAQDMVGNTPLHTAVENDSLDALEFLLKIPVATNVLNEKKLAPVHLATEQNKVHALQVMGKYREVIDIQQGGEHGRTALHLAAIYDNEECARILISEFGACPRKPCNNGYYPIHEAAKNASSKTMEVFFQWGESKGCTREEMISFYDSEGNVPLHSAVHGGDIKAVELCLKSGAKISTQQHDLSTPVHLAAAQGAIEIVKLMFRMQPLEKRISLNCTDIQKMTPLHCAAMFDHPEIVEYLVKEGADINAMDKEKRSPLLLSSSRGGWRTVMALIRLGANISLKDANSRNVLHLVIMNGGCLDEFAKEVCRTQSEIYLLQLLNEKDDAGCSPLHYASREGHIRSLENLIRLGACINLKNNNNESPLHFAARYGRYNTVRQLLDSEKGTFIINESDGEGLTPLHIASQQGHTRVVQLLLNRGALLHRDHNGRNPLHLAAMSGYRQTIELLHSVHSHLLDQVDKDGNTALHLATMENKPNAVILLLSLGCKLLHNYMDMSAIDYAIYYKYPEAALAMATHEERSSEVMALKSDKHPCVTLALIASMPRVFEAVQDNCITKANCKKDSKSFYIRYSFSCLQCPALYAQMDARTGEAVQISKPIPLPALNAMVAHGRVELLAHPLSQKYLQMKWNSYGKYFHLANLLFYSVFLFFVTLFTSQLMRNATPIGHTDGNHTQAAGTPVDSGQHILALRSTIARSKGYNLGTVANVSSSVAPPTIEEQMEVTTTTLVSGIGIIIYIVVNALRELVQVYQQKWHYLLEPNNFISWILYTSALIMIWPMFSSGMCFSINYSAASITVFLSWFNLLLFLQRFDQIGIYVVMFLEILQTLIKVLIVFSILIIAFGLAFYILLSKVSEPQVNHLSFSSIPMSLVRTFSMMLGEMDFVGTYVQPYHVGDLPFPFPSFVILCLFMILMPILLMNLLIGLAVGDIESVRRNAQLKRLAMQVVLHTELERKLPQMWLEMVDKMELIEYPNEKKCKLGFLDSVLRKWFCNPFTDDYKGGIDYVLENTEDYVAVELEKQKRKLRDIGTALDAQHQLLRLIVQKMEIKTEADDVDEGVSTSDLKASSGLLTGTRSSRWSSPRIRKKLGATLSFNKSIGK
Procedure: as §1

Drosophila TRPA1(B) = biological target: T2, Drosophila TRPA1(B) (Drosophila melanogaster, UniProt Q7Z020); test: Two-electrode voltage clamp of Xenopus oocytes expressing Drosophila TRPA1(B); format: cell-based
T2 construct: expressed in transfected cells; host or cells: Xenopus laevis oocytes injected with TrpA1 cRNA
T2 sequence (Q7Z020 1-1197): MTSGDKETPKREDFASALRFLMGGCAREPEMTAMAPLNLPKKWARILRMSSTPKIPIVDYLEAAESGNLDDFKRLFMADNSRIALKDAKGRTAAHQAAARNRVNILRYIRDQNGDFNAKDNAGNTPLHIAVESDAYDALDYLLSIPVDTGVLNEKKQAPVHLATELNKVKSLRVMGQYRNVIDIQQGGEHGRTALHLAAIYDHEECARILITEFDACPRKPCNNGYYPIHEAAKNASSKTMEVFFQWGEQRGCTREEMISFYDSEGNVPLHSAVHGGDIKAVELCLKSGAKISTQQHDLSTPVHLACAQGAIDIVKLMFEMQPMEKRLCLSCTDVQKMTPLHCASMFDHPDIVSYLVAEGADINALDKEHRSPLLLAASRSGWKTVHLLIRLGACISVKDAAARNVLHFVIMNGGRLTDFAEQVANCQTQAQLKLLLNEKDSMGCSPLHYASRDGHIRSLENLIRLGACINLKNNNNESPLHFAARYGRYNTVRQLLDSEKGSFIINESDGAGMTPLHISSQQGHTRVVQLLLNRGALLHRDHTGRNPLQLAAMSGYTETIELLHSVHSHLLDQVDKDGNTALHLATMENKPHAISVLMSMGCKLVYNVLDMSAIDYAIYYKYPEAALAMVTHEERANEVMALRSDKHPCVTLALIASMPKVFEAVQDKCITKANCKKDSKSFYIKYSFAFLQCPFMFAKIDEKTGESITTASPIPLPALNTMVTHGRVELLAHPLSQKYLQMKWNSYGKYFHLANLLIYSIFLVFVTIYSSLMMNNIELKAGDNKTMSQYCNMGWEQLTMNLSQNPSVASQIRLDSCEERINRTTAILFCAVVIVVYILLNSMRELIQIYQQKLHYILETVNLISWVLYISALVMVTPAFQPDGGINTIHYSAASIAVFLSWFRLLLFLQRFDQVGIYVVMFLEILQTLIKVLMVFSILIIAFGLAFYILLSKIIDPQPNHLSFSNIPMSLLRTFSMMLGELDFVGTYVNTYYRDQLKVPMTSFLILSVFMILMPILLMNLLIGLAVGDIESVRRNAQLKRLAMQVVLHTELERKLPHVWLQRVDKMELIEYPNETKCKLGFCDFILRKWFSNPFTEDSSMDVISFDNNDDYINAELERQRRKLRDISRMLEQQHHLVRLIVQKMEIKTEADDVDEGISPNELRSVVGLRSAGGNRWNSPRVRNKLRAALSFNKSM
Procedure: as §1

[1] = test system: bitter-sensing neurons in i-bristles; test: Extracellular single sensillum recording from labellum i-bristles; format: in vivo, Drosophila melanogaster; conditions: for effect of pre-application on UV-evoked action potentials: i-a bristles, applied via the recording electrode, concentrations below those eliciting fast activation
Procedure: In vivo taste cell recordings were performed as detailed previously ([Kang et al., 2012]). Briefly, bristles were identified based on the previously described sensillum map of the labellum ([Weiss et al., 2011]; [Tanimura et al., 2009]). […] Tricholine citrate (TCC) at 30 mM was used as an electrolyte in the glass recording electrodes. Chemicals were solubilized in the electrolyte solution, and then applied to taste neurons. Spiking frequencies to chemicals were calculated for entire recordings except for H2O2 recording in L bristles, for which spiking frequencies were calcuclated from the first 10 s. […] For the first 20 s of UV response recordings, the basal activity of neurons in the bristle was monitored, after which time UV illumination was administered to the sensilla for 20 s using optical fiber-coupled UV LEDs (FCS-0295–000, Mightex, CA, and UVTOP295, Qphotonics, MI, USA for UVB at 295 nm and M365FP1, Thorlabs, USA for UVA at 365 nm) controlled by an SLA-series two-channel LED driver (SLA-0100–2, Mightex) and a T-Cube LED driver (LEDD1B, Thorlab, USA), respectively. The maximal optical fiber output of 295 nm UV was 0.063 mWusing a ball-lens type LED and that of 365 nm UV was 0.3 mW. These net power outputs at the tip of the optical fiber were measured with a photodiode sensor (S120VC, Thorlabs, NJ, USA) connected to a digital console (PM100D, Thorlabs, NJ, USA). Illumination intensity was calculated by considering the size of illuminated area derived from the numerical aperture (NA) values of the optical fibers and the distance to the samples. Due to the complex shape of fly taste bristles on the labellum and various illumination angles between the light beam and tissue, we simplified the calculation by postulating a 45° angle and oval illumination area at a distance (Figure 1—figure supplement 1d). For oocytes, circular areas were calculated (Figure 1—figure supplement 1e). Blue and green light illumination was accomplished using a GFP or RFP excitation filter (470 or 540 nm with a bandpath of 50, respectively) equipped with a typical fluorescence microscope. The UV filter for experiments with white light consisted of glass deposited with nanolayers of titanium dioxide (custom-made, Seoul Precision Optics, Seoul, Korea). Flies prepared for sensillum recording in response to light were used once to record from a single bristle, in order to test only naïve cells. The reference electrode containing hemolymph-like solution 3.1 (HL3.1) ([Feng et al., 2009]) was inserted close to the labella taste neuron cell bodies from the back of the fly thorax, which held the proboscis in an extended configuration in order to minimize electrical noise stemming from movement of the live animal. Tasteprobe (Syntech, Netherlands) was used as a preamplifier to register the action potentials from the neurons, which were digitized with Powerlab (ADI instruments, Australia). The obtained spiking frequencies were analyzed by Labchart (ADI instruments, Australia). Non-responding bristles were re-tested with other agonists that activate the same neurons as indicated in the main text (Figure 1—figure supplement 2 and Figure 3—figure supplement 1).

TRPA1(A)C105A = test: Two-electrode voltage clamp of Xenopus oocytes expressing TRPA1(A)C105A; format: cell-based, Drosophila melanogaster
Procedure: as §1

TRPA1(A)R113A/R116A = test: Two-electrode voltage clamp of Xenopus oocytes expressing TRPA1(A)R113A/R116A; format: cell-based, Drosophila melanogaster
Procedure: as §1

agTRPA1(B) = test: Two-electrode voltage clamp of Xenopus oocytes expressing agTRPA1(B); format: cell-based, Anopheles gambiae; conditions: 0.1 mM APS
Procedure: as §1

Drosophila TRPA1(A) = biological target: T3, Drosophila TRPA1(A) (Drosophila melanogaster, UniProt Q7Z020); test: Two-electrode voltage clamp of Xenopus oocytes expressing Drosophila TRPA1(A); format: cell-based
T3 sequence (Q7Z020 1-1197): T2 sequence (Q7Z020 1-1197)
Procedure: as §1

mouse TRPA1 = conditions: extracellular Ca2+ required; ref Andersson et al., 2008; cited from earlier work
Drosophila (WT: wcs) = test: Capillary feeder (Café) assay, feeding avoidance; format: in vivo, Drosophila melanogaster; set-up: dose or concentration left out as unconfirmed; conditions: WT flies
Procedure: To quantitatively evaluate the impact of UV irradiation and chemicals on feeding deterrence, the capillary feeder (Café) assay ([Ja et al., 2007]) was used with minor modifications. In particular, feeding avoidance upon UV illumination was determined using two sibling populations of 16 hr starved flies. […] Irradiance was measured as ~1.8, 4, and 57.1 mW/cm^2for UVA, UVB, and white light, respectively, using an excised piece of a vial covering the photodiode probe (S120VC, Thorlabs, NJ, USA) to simulate internal irradiation. The vials were made of polypropylene, which has a low rate of UV transmission ([Kruenate et al., 2004]), resulting in increased internal temperature, as described in Figure 1—figure supplement 3. To minimize thermal accumulation, the UV-illuminated vial was actively cooled by fan-driven air flow while the internal temperature of a separately illuminated vial was concurrently monitored. After each feeding session, the change in the level of the menisci of 30 mM sucrose solutions in three calibrated glass capillary tubes (#2920107, Marienfeld, Lauda-Königshofen, Germany, 15 mm/μl) was measured. Following measurement of the evaporated volume obtained from vials without flies, the distance readings were converted to volume measurements. […]

T1 sequence (O75762 whole entry): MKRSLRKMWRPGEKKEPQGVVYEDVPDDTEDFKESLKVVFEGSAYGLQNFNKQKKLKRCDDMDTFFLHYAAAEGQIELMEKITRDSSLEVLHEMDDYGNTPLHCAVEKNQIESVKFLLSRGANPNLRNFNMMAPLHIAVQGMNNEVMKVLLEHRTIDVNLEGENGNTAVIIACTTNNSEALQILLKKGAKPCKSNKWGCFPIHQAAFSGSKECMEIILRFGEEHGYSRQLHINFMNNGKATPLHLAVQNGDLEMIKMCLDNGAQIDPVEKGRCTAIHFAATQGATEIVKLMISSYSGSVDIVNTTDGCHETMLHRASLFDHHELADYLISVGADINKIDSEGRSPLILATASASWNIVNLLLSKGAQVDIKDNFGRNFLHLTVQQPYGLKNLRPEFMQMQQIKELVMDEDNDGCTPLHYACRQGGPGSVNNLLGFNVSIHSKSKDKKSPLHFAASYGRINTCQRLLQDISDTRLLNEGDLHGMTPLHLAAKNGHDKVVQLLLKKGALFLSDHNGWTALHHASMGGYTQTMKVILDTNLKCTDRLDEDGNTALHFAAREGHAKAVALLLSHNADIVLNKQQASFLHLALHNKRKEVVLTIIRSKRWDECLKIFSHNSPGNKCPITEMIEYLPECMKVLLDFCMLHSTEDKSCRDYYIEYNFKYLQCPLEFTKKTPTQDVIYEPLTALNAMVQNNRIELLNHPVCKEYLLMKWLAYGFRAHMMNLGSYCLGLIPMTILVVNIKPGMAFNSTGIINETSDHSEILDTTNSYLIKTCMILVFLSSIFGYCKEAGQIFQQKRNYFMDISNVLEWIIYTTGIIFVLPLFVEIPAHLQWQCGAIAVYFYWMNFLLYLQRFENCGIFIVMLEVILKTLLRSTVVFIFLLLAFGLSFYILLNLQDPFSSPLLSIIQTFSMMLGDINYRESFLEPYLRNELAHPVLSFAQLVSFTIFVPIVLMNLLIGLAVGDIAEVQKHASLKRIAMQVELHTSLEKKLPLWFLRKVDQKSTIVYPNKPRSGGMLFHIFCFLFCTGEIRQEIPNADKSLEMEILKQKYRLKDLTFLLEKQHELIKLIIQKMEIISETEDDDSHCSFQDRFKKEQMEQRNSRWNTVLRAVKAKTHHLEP

With O[C@@H](CS)[C@@H](O)CS (racemic) [DTT, dithiothreitol] the “DTT current response” value (human TRPA1 (humTRPA1)) was “seldom showed electrophysiological responses to DTT”, the EC50 (agTRPA1(A)) was about 3.8 µM and the “DTT current response” value (Drosophila TRPA1(B); Xenopus oocytes) was “little compared to that of TRPA1(A)”. For the same compound, the “effect of pre-application on UV-evoked action potentials” value (shortened to “effect of pre-application”) [1] was “lowered the frequencies of UV-evoked action potentials”, the “DTT responsiveness” value (TRPA1(A)C105A) was “indistinguishable from that of TRPA1(B)” and the “DTT responsiveness” value (TRPA1(A)R113A/R116A) was “indistinguishable from that of TRPA1(B)”.

In the case of N.N.O=S(=O)(O)OOS(=O)(=O)O [APS, ammonium persulfate], the “channel activation” value (agTRPA1(A); 0.1 mM APS, mixture 0.01 mM TEMED and 0.1 mM APS, from 30 min after mixing) is reported as “activated agTPRA1(A)” and the “channel activation” value (agTRPA1(B)) is reported as “not agTRPA1(B)”.

For S=C=NCc1ccccc1 [BITC, benzyl isothiocyanate], the “effect of pre-application” value [1] was “lowered the frequencies of UV-evoked action potentials”.

In the case of N#CSCc1ccccc1 [BTC, benzyl thiocyanate], the “isoform preference of activation” value (agTRPA1(A); Xenopus oocytes) is reported as “preferentially activated agTRPA1(A) over agTRPA1(B)” and the “effect of pre-application” value [1] is reported as “lowered the frequencies of UV-evoked action potentials”.

With OO [H2O2, hydrogen peroxide] the “H2O2 current response” value (human TRPA1 (humTRPA1)) was “remarkably reduced responses to H2O2”, the EC50 (agTRPA1(A)) was 1.7 ± 0.3 µM and the “NMM-normalized peak current amplitude relative to Drosophila TRPA1(A)” value (agTRPA1(A); Xenopus oocytes) was ~ 5 times. The EC50 (Drosophila TRPA1(B)) was 900 ± 200 µM, the EC50 (Drosophila TRPA1(A)) was 5 ± 0.8 µM and the “lowest concentration that readily activates the channel” value (Drosophila TRPA1(A); Xenopus oocytes, 'as low as') was 100 nM. The Emax (Drosophila TRPA1(A); read-out: average maximal current amplitude relative to NMM responses) was about 30%, the EC50 (mouse TRPA1) was about 230 µM and the “spiking response of bitter-sensing neurons” value ([1]; 100 mM H2O2, required the TrpA1 gene) was “robust spiking response”. For the same compound, the “H2O2 current response” value (TRPA1(A)C105A) was “remarkably reduced responses to H2O2”, the “H2O2 current response” value (TRPA1(A)R113A/R116A) was “remarkably reduced responses to H2O2” and the “feeding avoidance” value (Drosophila (WT: wcs)) was “increasingly avoided ingestion of H2O2-containing food”.

For CN1C(=O)C=CC1=O [NMM, N-methyl maleimide], the “effect on the stimulatory effect of APS/TEMED co-incubation” value (agTRPA1(A); NMM at 0.01 mM) was “abolished”, the “reversal potential of evoked current” value (Drosophila TRPA1(A); Xenopus oocytes, n = 7) was −5.4 ± 1.0 mV and the “rectification: ratio of conductance at +60 mV to that at −60 mV” value (Drosophila TRPA1(A); net response, Xenopus oocytes, n = 4) was 1.7 ± 0.3. For the same compound, the “effect of pre-application” value [1] was “lowered the frequencies of UV-evoked action potentials” and the “feeding avoidance” value (Drosophila (WT: wcs)) was “showed NMM-dependent feeding avoidance”.

In the case of c1c[nH]cn1 [imidazole], the “isoform preference of activation” value (agTRPA1(A); Xenopus oocytes) is reported as “preferentially activated agTRPA1(A) over agTRPA1(B)”.
